Assay results from ChEMBL document CHEMBL3400015, “Tertiary amides of Salinomycin: A new group of antibacterial agents against Bacillus anthracis and methicillin-resistant Staphylococcus epidermidis” (Bioorg Med Chem Lett, 2015).
≈ marks a conversion by molar mass, not a printed value. Calls of active or inactive are those of the source. The calls are words filed in the database; no cut-off is given here.

Legend:
[1] = system: Staphylococcus epidermidis; experiment: Bactericidal activity against methicillin-resistant Staphylococcus epidermidis isolate 422/10 after 24 hrs; assay type: functional; details: isolate 422/10, 24 h, read-out: MBC99.9
[2] = system: Staphylococcus epidermidis; experiment: Bactericidal activity against methicillin-resistant Staphylococcus epidermidis isolate 469/11 after 24 hrs; assay type: functional; details: isolate 469/11, 24 h, read-out: MBC99.9
Staphylococcus aureus [3] = experiment: Antimicrobial activity against Staphylococcus aureus ATCC 6538 after 18 hrs by twofold serial broth dilution method; assay type: functional; details: ATCC 6538, 18 h
[4] = system: Staphylococcus epidermidis; experiment: Antimicrobial activity against methicillin-resistant Staphylococcus epidermidis isolate 409/10 after 18 hrs by twofold serial broth dilution method; assay type: functional; details: isolate 409/10, 18 h
[5] = system: Staphylococcus epidermidis; experiment: Antimicrobial activity against methicillin-resistant Staphylococcus epidermidis isolate 404/10 after 18 hrs by twofold serial broth dilution method; assay type: functional; details: isolate 404/10, 18 h
[6] = system: Staphylococcus epidermidis; experiment: Antimicrobial activity against Staphylococcus epidermidis ATCC 12228 after 18 hrs by twofold serial broth dilution method; assay type: functional; details: ATCC 12228, 18 h
Staphylococcus aureus [7] = experiment: Antimicrobial activity against Staphylococcus aureus NCTC 4163 after 18 hrs by twofold serial broth dilution method; assay type: functional; details: NCTC 4163, 18 h
[8] = system: Staphylococcus epidermidis; experiment: Bactericidal activity against methicillin-resistant Staphylococcus epidermidis isolate 409/10 after 24 hrs; assay type: functional; details: isolate 409/10, 24 h, read-out: MBC99.9
[9] = system: Staphylococcus epidermidis; experiment: Antimicrobial activity against methicillin-resistant Staphylococcus epidermidis isolate 461/11 after 18 hrs by twofold serial broth dilution method; assay type: functional; details: isolate 461/11, 18 h
[10] = system: Staphylococcus epidermidis; experiment: Bactericidal activity against methicillin-resistant Staphylococcus epidermidis isolate 454/11 after 24 hrs; assay type: functional; details: isolate 454/11, 24 h, read-out: MBC99.9
[11] = system: Staphylococcus epidermidis; experiment: Bactericidal activity against methicillin-resistant Staphylococcus epidermidis isolate 457/11 after 24 hrs; assay type: functional; details: isolate 457/11, 24 h, read-out: MBC99.9
[12] = system: Staphylococcus epidermidis; experiment: Bactericidal activity against methicillin-resistant Staphylococcus epidermidis isolate 405/10 after 24 hrs; assay type: functional; details: isolate 405/10, 24 h, read-out: MBC99.9
[13] = system: Staphylococcus epidermidis; experiment: Antimicrobial activity against methicillin-resistant Staphylococcus epidermidis isolate 405/10 after 18 hrs by twofold serial broth dilution method; assay type: functional; details: isolate 405/10, 18 h
[14] = system: Staphylococcus epidermidis; experiment: Bactericidal activity against methicillin-resistant Staphylococcus epidermidis isolate 470/11 after 24 hrs; assay type: functional; details: isolate 470/11, 24 h, read-out: MBC99.9
Staphylococcus aureus [15] = experiment: Bactericidal activity against Staphylococcus aureus ATCC 25923 after 24 hrs; assay type: functional; details: ATCC 25923, 24 h, read-out: MBC99.9
[16] = system: Staphylococcus epidermidis; experiment: Ratio of ciprofloxacin MIC to compound MIC for methicillin-resistant Staphylococcus epidermidis clinical isolate after 18 hrs by twofold serial broth dilution method; assay type: functional
[17] = system: Staphylococcus epidermidis; experiment: Inhibition of Staphylococcus epidermidis ATCC 35984 biofilm formation at 1 to 32 ug/ml after 24 hrs by MTT assay; assay type: functional, organism-based
[18] = system: Staphylococcus epidermidis; experiment: Inhibition of Staphylococcus epidermidis isolate 407/10 biofilm formation at 1 to 32 ug/ml after 24 hrs by MTT assay; assay type: functional, organism-based
[19] = system: Staphylococcus epidermidis; experiment: Inhibition of Staphylococcus epidermidis isolate 461/11 biofilm formation at 1 to 32 ug/ml after 24 hrs by MTT assay; assay type: functional, organism-based
[20] = system: Staphylococcus epidermidis; experiment: Inhibition of Staphylococcus epidermidis isolate 409/10 biofilm formation at 1 to 32 ug/ml after 24 hrs by MTT assay; assay type: functional, organism-based
[21] = system: Staphylococcus epidermidis; experiment: Inhibition of Staphylococcus epidermidis ATCC 12228 biofilm formation at 1 to 32 ug/ml after 24 hrs by MTT assay; assay type: functional, organism-based
[22] = system: Staphylococcus epidermidis; experiment: Inhibition of Staphylococcus epidermidis isolate 469/11 biofilm formation at 1 to 32 ug/ml after 24 hrs by MTT assay; assay type: functional, organism-based

CC[C@@H](C(=O)[C@@H](C)[C@@H](O)[C@H](C)[C@@H]1O[C@@H]([C@@H](CC)C(=O)N2CCNCC2)CC[C@@H]1C)[C@H]1O[C@]2(C=C[C@@H](O)[C@]3(CC[C@@](C)([C@H]4CC[C@](O)(CC)[C@H](C)O4)O3)O2)[C@H](C)C[C@@H]1C
MBC [1]: > 256 µg/mL
MBC [2]: > 256 µg/mL
MIC (Staphylococcus aureus [3]): 64 µg/mL (≈ 78.1 µM)
MIC [4]: 128 µg/mL (≈ 156 µM)
MIC [5]: 64 µg/mL (≈ 78.1 µM)
MIC [6]: 128 µg/mL (≈ 156 µM)
MIC (Staphylococcus aureus [7]): 128 µg/mL (≈ 156 µM)
MBC [8]: > 256 µg/mL
MIC [9]: 256 µg/mL (≈ 313 µM)
MBC [10]: > 256 µg/mL
MBC [11]: > 256 µg/mL
MBC [12]: > 256 µg/mL
MIC [13]: 64 µg/mL (≈ 78.1 µM)
MBC [14]: > 256 µg/mL
MBC (Staphylococcus aureus [15]): > 256 µg/mL

CC[C@@H](C(=O)[C@@H](C)[C@@H](O)[C@H](C)[C@@H]1O[C@@H]([C@@H](CC)C(=O)N(CC)CC)CC[C@@H]1C)[C@H]1O[C@]2(C=C[C@@H](O)[C@]3(CC[C@@](C)([C@H]4CC[C@](O)(CC)[C@H](C)O4)O3)O2)[C@H](C)C[C@@H]1C
MBC [1]: 256 µg/mL (≈ 318 µM)
MBC [2]: 256 µg/mL (≈ 318 µM)
MIC (Staphylococcus aureus [3]): 2 µg/mL (≈ 2.48 µM)
MIC [4]: 4 µg/mL (≈ 4.96 µM)
MIC [5]: 4 µg/mL (≈ 4.96 µM)
MIC [6]: 2 µg/mL (≈ 2.48 µM)
MIC (Staphylococcus aureus [7]): 4 µg/mL (≈ 4.96 µM)
MBC [8]: 256 µg/mL (≈ 318 µM)
MIC [9]: 4 µg/mL (≈ 4.96 µM)
MBC [10]: 128 µg/mL (≈ 159 µM)
MBC [11]: 128 µg/mL (≈ 159 µM)
MBC [12]: 256 µg/mL (≈ 318 µM)
MIC [13]: 8 µg/mL (≈ 9.92 µM)
Ratio [16]: 40
MBC [14]: 128 µg/mL (≈ 159 µM)
MBC (Staphylococcus aureus [15]): 64 µg/mL (≈ 79.4 µM)

CCCN(CCC)C(=O)[C@H](CC)[C@H]1CC[C@H](C)[C@H]([C@@H](C)[C@H](O)[C@H](C)C(=O)[C@H](CC)[C@H]2O[C@]3(C=C[C@@H](O)[C@]4(CC[C@@](C)([C@H]5CC[C@](O)(CC)[C@H](C)O5)O4)O3)[C@H](C)C[C@@H]2C)O1
MBC [1]: 128 µg/mL (≈ 153 µM)
MBC [2]: 128 µg/mL (≈ 153 µM)
MIC (Staphylococcus aureus [3]): 1 µg/mL (≈ 1.2 µM)
MIC [4]: 8 µg/mL (≈ 9.59 µM)
MIC [5]: 4 µg/mL (≈ 4.8 µM)
MIC [6]: 2 µg/mL (≈ 2.4 µM)
MIC (Staphylococcus aureus [7]): 2 µg/mL (≈ 2.4 µM)
MBC [8]: 128 µg/mL (≈ 153 µM)
MIC [9]: 4 µg/mL (≈ 4.8 µM)
MBC [10]: 128 µg/mL (≈ 153 µM)
MBC [11]: 256 µg/mL (≈ 307 µM)
MBC [12]: 128 µg/mL (≈ 153 µM)
MIC [13]: 8 µg/mL (≈ 9.59 µM)
Ratio [16]: 40
MBC [14]: 256 µg/mL (≈ 307 µM)
MBC (Staphylococcus aureus [15]): > 256 µg/mL

O=C(O)c1cn(C2CC2)c2cc(N3CCNCC3)c(F)cc2c1=O [CIPROFLOXACIN]
MBC [1]: 64 µg/mL (≈ 193 µM)
MBC [2]: 128 µg/mL (≈ 386 µM)
MIC (Staphylococcus aureus [3]): 0.25 µg/mL (≈ 0.754 µM)
MIC [4]: 2 µg/mL (≈ 6.04 µM)
inhibition [17]: Active
MIC [5]: 32 µg/mL (≈ 96.6 µM)
inhibition [18]: Active
MIC [6]: 0.25 µg/mL (≈ 0.754 µM)
MIC (Staphylococcus aureus [7]): 0.25 µg/mL (≈ 0.754 µM)
MBC [8]: 64 µg/mL (≈ 193 µM)
MIC [9]: 0.25 µg/mL (≈ 0.754 µM)
MBC [10]: 0.25 µg/mL (≈ 0.754 µM)
MBC [11]: > 256 µg/mL
MBC [12]: 128 µg/mL (≈ 386 µM)
inhibition [19]: Active
inhibition [20]: Active
inhibition [21]: Active
MIC [13]: 2 µg/mL (≈ 6.04 µM)
MBC [14]: 0.5 µg/mL (≈ 1.51 µM)
inhibition [22]: Active
MBC (Staphylococcus aureus [15]): 2 µg/mL (≈ 6.04 µM)

CC[C@@H](C(=O)[C@@H](C)[C@@H](O)[C@H](C)[C@@H]1O[C@@H]([C@@H](CC)C(=O)N(CCO)CCO)CC[C@@H]1C)[C@H]1O[C@]2(C=C[C@@H](O)[C@]3(CC[C@@](C)([C@H]4CC[C@](O)(CC)[C@H](C)O4)O3)O2)[C@H](C)C[C@@H]1C
MBC [1]: 128 µg/mL (≈ 153 µM)
MBC [2]: 256 µg/mL (≈ 305 µM)
MIC (Staphylococcus aureus [3]): 4 µg/mL (≈ 4.77 µM)
MIC [4]: 8 µg/mL (≈ 9.55 µM)
MIC [5]: 4 µg/mL (≈ 4.77 µM)
MIC [6]: 4 µg/mL (≈ 4.77 µM)
MIC (Staphylococcus aureus [7]): 4 µg/mL (≈ 4.77 µM)
MBC [8]: 256 µg/mL (≈ 305 µM)
MIC [9]: 4 µg/mL (≈ 4.77 µM)
MBC [10]: 128 µg/mL (≈ 153 µM)
MBC [11]: 256 µg/mL (≈ 305 µM)
MBC [12]: 128 µg/mL (≈ 153 µM)
MIC [13]: 2 µg/mL (≈ 2.39 µM)
Ratio [16]: 40
MBC [14]: 256 µg/mL (≈ 305 µM)
MBC (Staphylococcus aureus [15]): 256 µg/mL (≈ 305 µM)
